From ChEMBL document CHEMBL4765257, “Synthesis and structure-activity relationship study of pyrrolidine-oxadiazoles as anthelmintics against Haemonchus contortus” (Eur J Med Chem, 2020)
Converted amounts (≈) assume the structure as drawn.

What was measured:
[1] = tested on: Haemonchus contortus; test: Anti-helmintic activity against third-stage Haemonchus contortus larvae assessed as inhibition of xL3 motility measured after 72 hrs; type: functional, organism-based
[2] = tested on: Haemonchus contortus; test: Anti-helmintic activity against fourth stage of Haemonchus contortus larvae assessed as reduction in development of L4 stage incubated for 72 hrs followed by reincubation in humidified environment for 4 days; type: functional, organism-based
[3] = Cytotoxicity against human MCF-10A cells assessed as inhibition of cell viability at 50 uM measured after 48 hrs by DAPI staining based analysis; conditions: read-out: INH
[4] = tested on: MCF-10A; test: Cytotoxicity against human MCF-10A cells assessed as inhibition of cell viability measured after 48 hrs by DAPI staining based analysis
[5] = Kinetic solubility of the compound in 0.01M HCl at pH 2.0 incubated for 30 mins by nephelometry; type: physicochemical; conditions: read-out: Kinetic_solubility
[6] = Kinetic solubility of the compound in phosphate buffer pH 6.5 incubated for 30 mins by nephelometry; type: physicochemical; conditions: read-out: Kinetic_solubility
[7] = Half life in human liver microsomes at 0.5 uM measured upto 60 mins in presence of NADPH; type: ADME, Microsome
[8] = Half life in mouse liver microsomes at 0.5 uM measured upto 60 mins in presence of NADPH; type: ADME, Microsome
[9] = Intrinsic clearence in human liver microsomes at 0.5 uM measured upto 60 mins in presence of NADPH measured per mg protein; type: ADME, Microsome; conditions: read-out: CLH
[10] = Intrinsic clearence in mouse liver microsomes at 0.5 uM measured upto 60 mins in presence of NADPH measured per mg protein; type: ADME, Microsome; conditions: read-out: CLH
[11] = Haemonchus contortus, 72 h, read-out: IC50

Row | Compound | IC50 [2] | cytotoxicity at 48 h, 50 µM [3] | IC50 [4] | IC50 [1, 11] | other results
1 | O=C(Nc1ccc(Cl)cc1)N1CCC[C@H]1c1nc(-c2ccc(I)cc2)no1 | 50 µM | 23% | > 50 µM | – | IC50 [1]: Active
2 | N#Cc1ccc(NC(=O)N2CCC[C@H]2c2nc(-c3ccccc3)no2)cc1 | > 100 µM | 27% | > 50 µM | 18 µM | –
3 | O=C(Nc1ccc(Cl)cc1)N1CCC[C@H]1c1nc(-c2ccc(Br)cc2)no1 | > 100 µM | 30% | > 50 µM | – | IC50 [1]: Active
4 | COc1ccc(-c2noc([C@@H]3CCCN3C(=O)Nc3ccc(Cl)cc3)n2)cc1 | > 100 µM | 13% | > 50 µM | 50 µM | –
5 | Cc1ccccc1NC(=O)N1CCC[C@H]1c1nc(-c2ccccc2)no1 | > 100 µM | – | – | > 100 µM | –
6 | N#Cc1cccc(NC(=O)N2CCC[C@H]2c2nc(-c3ccccc3)no2)c1 | > 100 µM | – | – | > 100 µM | –
7 | O=C(Nc1ccc(Cl)cc1)N1CCC[C@H]1c1nc(-c2ccccc2)no1 | 21 µM | 7.5% | > 50 µM | 5.3 µM | solubility kinetic at 0.5 h [5]: 1.6 µg/mL (≈ 4.34 µM); solubility kinetic at 0.5 h [6]: 1.6 µg/mL (≈ 4.34 µM); half-life at 0.5 µM [7]: 93 min; half-life at 0.5 µM [8]: 20 min; microsomal CLint at 0.5 µM [9]: 19 µL/min/mg; microsomal CLint at 0.5 µM [10]: 89 µL/min/mg
8 | O=C(Nc1ccncc1)N1CCC[C@H]1c1nc(-c2ccccc2)no1 | > 100 µM | – | – | > 100 µM | –
9 | O=C(Nc1ccc(Cl)cc1)N1CCC[C@@H]1c1nc(-c2ccccc2)no1 | > 100 µM | – | – | > 100 µM | –
10 | O=C(Nc1ccccc1Br)N1CCC[C@H]1c1nc(-c2ccccc2)no1 | > 100 µM | – | – | > 100 µM | –
11 | O=C(Nc1ccc(C(F)(F)F)cc1)N1CCC[C@H]1c1nc(-c2ccccc2)no1 | 7 µM | 33% | > 50 µM | 9.5 µM | –
12 | O=C(Nc1ccc(Cl)cc1)N1CCC[C@H]1c1nc(-c2ccc(O)cc2)no1 | > 100 µM | – | – | > 100 µM | –
13 | O=C(Nc1cccnc1)N1CCC[C@H]1c1nc(-c2ccccc2)no1 | > 100 µM | – | – | > 100 µM | –
14 | O=C(Nc1cccc(Cl)c1)N1CCC[C@H]1c1nc(-c2ccccc2)no1 | > 100 µM | – | – | > 100 µM | –
15 | Cc1ccc(-c2noc([C@@H]3CCCN3C(=O)Nc3ccc(Cl)cc3)n2)cc1 | 50 µM | 47% | > 50 µM | – | IC50 [1]: Active
16 | Cc1ccc(NC(=O)N2CCC[C@H]2c2nc(-c3ccccc3)no2)cc1 | > 100 µM | – | – | > 100 µM | –
17 | O=C(Nc1ccc(Cl)cc1)N1CCCC1c1nc(-c2ccccc2)no1 (centres undefined) | 0.31 µM | – | – | 3.46 µM | –
18 | O=C(Nc1ccc(OC(F)(F)F)cc1)N1CCC[C@H]1c1nc(-c2ccccc2)no1 | 13 µM | 18% | > 50 µM | 4.2 µM | –
19 | Cc1cccc(NC(=O)N2CCC[C@H]2c2nc(-c3ccccc3)no2)c1 | > 100 µM | – | – | > 100 µM | –
20 | O=C(Nc1ccccc1O)N1CCC[C@H]1c1nc(-c2ccccc2)no1 | > 100 µM | – | – | > 100 µM | –

Row | Compound | IC50 [2] | cytotoxicity at 48 h, 50 µM [3] | IC50 [4] | IC50 [1, 11] | other results
21 | O=C(Nc1ccccc1I)N1CCC[C@H]1c1nc(-c2ccccc2)no1 | > 100 µM | – | – | > 100 µM | –
22 | COc1ccccc1NC(=O)N1CCC[C@H]1c1nc(-c2ccccc2)no1 | > 100 µM | – | – | > 100 µM | –
23 | O=C(Nc1cccc(O)c1)N1CCC[C@H]1c1nc(-c2ccccc2)no1 | > 100 µM | – | – | > 100 µM | –
24 | O=C(Nc1ccc(O)cc1)N1CCC[C@H]1c1nc(-c2ccccc2)no1 | > 100 µM | – | – | > 100 µM | –
25 | COc1ccc(NC(=O)N2CCC[C@H]2c2nc(-c3ccccc3)no2)cc1 | > 100 µM | – | – | > 100 µM | –
26 | COc1cccc(-c2noc([C@@H]3CCCN3C(=O)Nc3ccc(Cl)cc3)n2)c1 | > 100 µM | – | – | > 100 µM | –
27 | CC(=O)c1ccccc1NC(=O)N1CCC[C@H]1c1nc(-c2ccccc2)no1 | > 100 µM | – | – | > 100 µM | –
28 | O=C(Nc1ccc(F)cc1)N1CCC[C@H]1c1nc(-c2ccccc2)no1 | > 100 µM | – | – | > 100 µM | –
29 | O=C(Nc1ccc(Br)cc1)N1CCC[C@H]1c1nc(-c2ccccc2)no1 | 12 µM | 20% | > 50 µM | 1.8 µM | –
30 | O=C(Nc1ccc(Cl)cc1)N1CCC[C@H]1c1nc(-c2cccc(Cl)c2)no1 | 7.6 µM | 17% | > 50 µM | 3 µM | –
31 | O=C(Nc1ccc(Cl)cc1)N1CCC[C@H]1c1nc(-c2ccc(Cl)cc2)no1 | 20 µM | 22% | > 50 µM | 1.5 µM | –
32 | N#Cc1ccccc1NC(=O)N1CCC[C@H]1c1nc(-c2ccccc2)no1 | > 100 µM | – | – | > 100 µM | –
33 | O=C(Nc1ccc(Cl)cc1)N1CCC[C@H]1c1nc(-c2cccc(Br)c2)no1 | > 100 µM | 20% | > 50 µM | 1.1 µM | –
34 | COc1cccc(NC(=O)N2CCC[C@H]2c2nc(-c3ccccc3)no2)c1 | > 100 µM | – | – | > 100 µM | –
35 | O=C(Nc1ccc(Cl)cc1)N1CCC[C@H]1c1nc(-c2ccccc2Br)no1 | 22 µM | 30% | > 50 µM | 12 µM | –
36 | Cc1ccccc1-c1noc([C@@H]2CCCN2C(=O)Nc2ccc(Cl)cc2)n1 | 50 µM | 36% | > 50 µM | 0.78 µM | –
37 | N#Cc1ccc(-c2noc([C@@H]3CCCN3C(=O)Nc3ccc(Cl)cc3)n2)cc1 | > 100 µM | 11% | > 50 µM | > 100 µM | –
38 | CC(=O)c1cccc(NC(=O)N2CCC[C@H]2c2nc(-c3ccccc3)no2)c1 | > 100 µM | – | – | > 100 µM | –
39 | Cc1cccc(-c2noc([C@@H]3CCCN3C(=O)Nc3ccc(Cl)cc3)n2)c1 | > 100 µM | 29% | > 50 µM | 1.9 µM | –
40 | O=C(Nc1cccc(Br)c1)N1CCC[C@H]1c1nc(-c2ccccc2)no1 | > 100 µM | – | – | > 100 µM | –

Row | Compound | IC50 [2] | cytotoxicity at 48 h, 50 µM [3] | IC50 [4] | IC50 [1, 11] | other results
41 | O=C(Nc1ccc(Cl)cc1)N1CCC[C@H]1c1nc(-c2ccc(F)cc2)no1 | 19 µM | 22% | > 50 µM | 1.3 µM | –
42 | CN(C)S(=O)(=O)c1ccc(NC(=O)N2CCC[C@H]2c2nc(-c3ccccc3)no2)cc1 | > 100 µM | – | – | > 100 µM | –
43 | O=C(Nc1ccccc1F)N1CCC[C@H]1c1nc(-c2ccccc2)no1 | > 100 µM | – | – | > 100 µM | –
44 | O=C(Nc1ccc(I)cc1)N1CCC[C@H]1c1nc(-c2ccccc2)no1 | 3.2 µM | 8% | > 50 µM | 5.6 µM | –
45 | O=C(Nc1ccc(Cl)cc1)N1CCC[C@H]1c1nc(-c2cccc(O)c2)no1 | 22.4 µM | 32% | > 50 µM | 0.78 µM | –
46 | CC(=O)c1ccc(NC(=O)N2CCC[C@H]2c2nc(-c3ccccc3)no2)cc1 | > 100 µM | – | – | > 100 µM | –
47 | CC(C)c1ccc(NC(=O)N2CCC[C@H]2c2nc(-c3ccccc3)no2)cc1 | > 100 µM | – | – | > 100 µM | –
48 | N#Cc1cccc(-c2noc([C@@H]3CCCN3C(=O)Nc3ccc(Cl)cc3)n2)c1 | > 100 µM | 16% | > 50 µM | > 100 µM | –
49 | COc1ccccc1-c1noc([C@@H]2CCCN2C(=O)Nc2ccc(Cl)cc2)n1 | > 100 µM | – | – | > 100 µM | –
50 | O=C(Nc1ccc(Cl)cc1)N1CCC[C@H]1c1nc(-c2cccc(F)c2)no1 | 18 µM | 22% | > 50 µM | 8.1 µM | –
51 | O=C(Nc1ccc([N+](=O)[O-])cc1)N1CCC[C@H]1c1nc(-c2ccccc2)no1 | 50 µM | 22% | > 50 µM | 50 µM | –
52 | O=C(Nc1ccc(Cl)cc1)N1CCC[C@H]1c1nc(-c2ccccc2F)no1 | > 100 µM | 30% | > 50 µM | – | IC50 [1]: Active
53 | O=C(Nc1ccccc1Cl)N1CCC[C@H]1c1nc(-c2ccccc2)no1 | > 100 µM | – | – | > 100 µM | –
54 | O=C(Nc1ccc(Cl)cc1)N1CCC[C@H]1c1nc(-c2ccccc2O)no1 | > 100 µM | – | – | > 100 µM | –
55 | O=C(Nc1ccccc1)N1CCC[C@H]1c1nc(-c2ccccc2)no1 | > 100 µM | – | – | > 100 µM | –
56 | O=C(Nc1cccc(F)c1)N1CCC[C@H]1c1nc(-c2ccccc2)no1 | > 100 µM | – | – | > 100 µM | –
57 | O=C(Nc1ccc(Cl)cc1)N1CCC[C@H]1c1nc(-c2ccccc2Cl)no1 | 20 µM | 40% | > 50 µM | 9.2 µM | –
58 | CS(=O)(=O)c1ccc(NC(=O)N2CCC[C@H]2c2nc(-c3ccccc3)no2)cc1 | > 100 µM | – | – | > 100 µM | –
59 | C[C@](C#N)(COc1cc(C#N)ccc1C(F)(F)F)NC(=O)c1ccc(SC(F)(F)F)cc1 [MONEPANTEL] | 0.075 µM | 99% | 26.9 µM | 0.16 µM | –
